Key:
[1] = tested on: P. aeruginosa; conditions: known in the art; cited from earlier work
[2] = tested on: S. aureus; experiment: in vitro agar zone of inhibition (ZOI) test; assay type: cell-based; conditions: 24 hours
Description: In an experimental procedure, using a commercially-available, medical grade polyurethane (PU) solution (available, for example from ChronoFlex AR, CardioTech International, Inc. of Woburn, Mass.), silver salt(s) is/are manually incorporated into the solution. The silver-loaded ChronoFlex solution is spread onto glass, and dried in a circulating oven at 80 C for 1.5 hours. The loaded PU film was allowed to equilibrate at RT for at least two days, and subsequently demolded. The film was manually cut into circles by means of a cork borer, and placed into serially-labeled Petri dishes. The microbiology technician was blinded regarding which silver salts were incorporated into the film. Two types of silver salts were tested as described generally above: (1) soluble salts for quick release, and (2) an insoluble salt for longevity.
If the test samples show a “zone of inhibition” (“ZOI”) the specimen thus display the capacity to kill the microorganisms tested. The ZOI is measured in mm; the greater the ZOI distance, the more powerful is the microbiocidal effect. Note that, prior to application, the test films were sterilized using short-wave UV at a distance of 2 inches for 10 seconds.
Using a 10 mm sample disc, the microbial growth inhibition was measured from the edge of each sample disc, producing antimicrobial results in accordance with the following Table:

SMILES | effectiveness against Gram-negative rods (such as pseudomonas aeruginosa) [1] | microbiocidal activity against S. aureus, in words [2]
[H]/N=C(\N/C(=N/[H])NCCCCCCNC(=N)NC(=N)Nc1ccc(Cl)cc1)Nc1ccc(Cl)cc1 [chlorhexidine] | somewhat ineffective | –
O=C([O-])c1ccccc1.[Ag+] [silver benzoate] | – | totally ineffective
CC(O)C(=O)[O-].[Ag+] (stereo not shown) [silver lactate] | – | totally ineffective
O=C([O-])C(F)(F)F.[Ag+] [silver trifluoroacetate] | – | effective against Gram-positives, but for very short periods of time
